Reference: patent publication US20170050966A1, “INHIBITING THE TRANSIENT RECEPTOR POTENTIAL A1 ION CHANNEL” (HYDRA BIOSCIENCES, INC., priority 2014, published 2017)
≈ marks a conversion by molar mass, not a printed value. Read-outs that look alike come from different tables or passages of the source.

Key:
human TRPA1 (hTRPA1) = molecular target: T1, human TRPA1 (hTRPA1) (Homo sapiens, UniProt O75762); assay: Inhibition of human TRPA1, whole-cell patch clamp; type: cell-based; conditions: antagonist effect, whole cell patch configuration; read-out: hTRPA1
T1 construct: expressed in transfected cells
Procedure: Data for TRPA1 inhibition was obtained by this method for the indicated compounds of Formula (I), with the relevant data included in Table 14 below. All currents were recorded in whole-cell configuration using EPC-9 and EPC-10 amplifiers and Patchmaster software (HEKA). […] The standard pipette solution consisted of 140 mM CsAsp, 10 mM EGTA, 10 mM HEPES, […], 1.91 mM CaCl2, and up to 0.3 mM Na2GTP, with pH adjusted to 7.2 with CsOH. In addition, a solution containing 145 mM CsCl, 10 mM HEPES, 10 mM EGTA, and up to 0.3 mM Na2GTP and 1 mM MgCl2 (pH 7.2 adjusted with CsOH) can be used. The standard bath solution contained 150 mM NaCl, 10 mM HEPES, 10 mM glucose, 4.5 mM KCl, 1 mM EGTA, 3 mM MgCl2, with pH adjusted to 7.4 with NaOH. In some instances, 2 mM CaCl2 was added in place of EGTA and the concentration of MgCl2 was reduced to 1 mM.
Data were collected either by continuous recordings at −60 mV or by applying voltage ramps from a holding potential of 0 mV every 4 s. Continuous recordings were collected at 400 Hz and digitally filtered off-line at 10 Hz for presentation. Voltage ramps were applied from −100 mV to 100 mV over the course of 400 ms, and data were collected at 10 kHz and filtered at […]. Inward and outward currents were analyzed from the ramps at −80 and 80 mV, respectively. Liquid junction potential correction was not used.
Solutions were switched using a gravity-fed continuous focal perfusion system. To achieve rapid temperature changes, two temperature control, and perfusion systems were employed simultaneously. For temperatures greater than or equal to 22° C., a Warner Instruments bipolar temperature controller (TC-344B) and inline heater (SHM-8) were used. […] Temperatures were confirmed using a thermistor (Warner Instruments, TA-29), with temperatures at the recorded cell estimated to be within +/−2° C. of those reported.
The antagonist effects of compounds of Formula (I) against human TRPA1 (“hTRPA1”) in a whole cell patch configuration were evaluated using the in vitro assay protocol described above.

[1] = Metabolic stability in liver microsomes; type: in vitro ADME, human; conditions: 1 μM test compound; for half-life at 1 μM: human, liver microsomes, 37° C.
Procedure: (§1) Metabolic stability of the compounds of Formula (I) was determined by standard liver microsome assays. Briefly, metabolic stability was tested by adding the compound to be tested dissolved in DMSO to human, dog, or rat liver microsomes. Assays were run with a starting concentration of 1 μM test compound. The reaction was initiated by addition of nicotinamide adenine dinucleotide phosphate[…] (NADPH) regeneration components at 37° C., at which time an aliquot was immediately quenched in an ice-cold acetonitrile/methanol/water solution. Reaction mixture was incubated at 37° C. on a shaker, and additional aliquots were taken at 7, 15, 30 and 60 minutes. Following quench and centrifugation, samples were analyzed on HPLC/MS/MS.

[2] = Metabolic stability in liver microsomes; type: in vitro ADME; conditions: rat liver microsomes; for half-life at 1 μM: both sexes, read-out: Half-Life Both sexes
Procedure: as §1

[3] = Kinetic solubility in buffered solutions; type: physicochemical; conditions: aqueous buffer, kinetic from dmso stock, 24 hours ambient
Procedure: The solubilities of the compounds of Formula (I) were tested using the procedure outlined in Kerns, E. H., J Pharm Sci (2001) 90:1838-1858, incorporated herein by reference and described below. Data for solubility was obtained by this method for compounds of Formula (I) and included in Table 3. The chromatographic data was performed by HPLC using an Xbridge Shield RP18 column with the following column dimensions: 4.6×30 mm, 3.5 μm. The mobile phase consisted of deionized water (MPA) with trifluoroacetic acid added in at 0.1% (v/v) (MPC) and HPLC-grade acetonitrile (MPB). The mobile phase flow rate was 2.5 mL/min with the column and sampling operating at ambient temperature. UV detection was set to 280 nm.
Samples for analysis of the compounds of Formula (I) were prepared at a % v/v=1/19 (i.e., 10 μL of the stock solution into 190 μL of buffer) by spiking stock solutions of the compounds of Formula (I) into buffered solutions. Three buffered solution systems were prepared: pH 4.0 prepared from 50 mM sodium acetate in a 5% dextrose in water solution, pH 7.4 prepared from 75 mM sodium phosphate in a 1:1 ratio of sterilized water for injection to a 5% dextrose in water solution, and pH 9.0 prepared from 50 mM sodium bicarbonate in a 1:2 ratio of sterilized water for injection to a 5% dextrose in water solution. The samples were incubated on a microplate shaker at 300 rpm for 24 hours at ambient temperature. Following incubation, the samples were centrifuged for five minutes at 13 k rpm at ambient temperature. The resulting supernantant was extracted for HPLC analysis.

[4] = sodium acetate buffer, pH 4.0, 50 mM sodium acetate, read-out: pH 4.0 solubility
[5] = sodium bicarbonate buffer, pH 9.0, 50 mM sodium bicarbonate, read-out: pH 9.0 solubility
[6] = sodium phosphate buffer, pH 7.4, 75 mM sodium phosphate, read-out: pH 7.4 solubility

T1 sequence (O75762 whole entry): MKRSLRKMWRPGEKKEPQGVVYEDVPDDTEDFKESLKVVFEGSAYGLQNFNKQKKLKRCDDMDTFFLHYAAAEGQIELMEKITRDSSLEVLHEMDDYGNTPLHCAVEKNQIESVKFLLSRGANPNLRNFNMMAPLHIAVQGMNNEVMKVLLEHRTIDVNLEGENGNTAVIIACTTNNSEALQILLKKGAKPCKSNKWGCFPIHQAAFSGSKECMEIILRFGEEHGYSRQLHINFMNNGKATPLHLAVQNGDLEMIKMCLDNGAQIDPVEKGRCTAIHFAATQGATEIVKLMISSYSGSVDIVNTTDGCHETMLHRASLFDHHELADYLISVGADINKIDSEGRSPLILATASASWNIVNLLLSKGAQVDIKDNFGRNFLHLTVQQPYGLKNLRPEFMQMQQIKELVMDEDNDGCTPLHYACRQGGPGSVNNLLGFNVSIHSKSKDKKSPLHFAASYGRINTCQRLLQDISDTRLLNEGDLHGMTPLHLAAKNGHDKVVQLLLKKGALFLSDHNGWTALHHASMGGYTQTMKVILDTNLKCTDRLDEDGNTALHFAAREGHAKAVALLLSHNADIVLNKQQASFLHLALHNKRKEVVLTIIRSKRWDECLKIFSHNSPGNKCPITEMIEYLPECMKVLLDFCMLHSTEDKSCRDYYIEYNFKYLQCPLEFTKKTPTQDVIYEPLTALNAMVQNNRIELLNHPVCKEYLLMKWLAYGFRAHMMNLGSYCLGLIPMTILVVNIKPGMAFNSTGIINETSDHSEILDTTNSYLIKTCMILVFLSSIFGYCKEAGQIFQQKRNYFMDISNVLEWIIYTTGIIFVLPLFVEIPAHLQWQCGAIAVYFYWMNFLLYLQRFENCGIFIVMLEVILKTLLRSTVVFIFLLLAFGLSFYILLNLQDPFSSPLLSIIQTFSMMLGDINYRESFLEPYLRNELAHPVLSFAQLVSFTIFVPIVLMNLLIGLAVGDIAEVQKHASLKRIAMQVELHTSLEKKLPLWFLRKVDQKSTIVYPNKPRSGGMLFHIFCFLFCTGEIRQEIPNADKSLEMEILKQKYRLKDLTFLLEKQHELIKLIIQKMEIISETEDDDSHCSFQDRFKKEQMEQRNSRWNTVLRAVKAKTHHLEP

Structure (SMILES)	IC50 (human TRPA1 (hTRPA1)) [nM]	half-life at 1 μM [1] [min]	half-life at 1 μM [2] [min]	solubility kinetic at 24 h [3, 4] [µg/mL]	solubility kinetic at 24 h [3, 5] [µg/mL]	solubility kinetic at 24 h [3, 6] [µg/mL]	Human Liver Microsomes Hepatic Clearance [1] [mL/min/kg]	Hepatic Clearance [2] [mL/min/kg]
C[C@H](C(=O)Nc1ccnc(-c2cnc(N3CCC[C@H]3C(F)(F)F)nc2)n1)n1cnc2c1c(=O)n(C)c(=O)n2C [Compound 3, (R)-2-(1,3-dimethyl-2,6-dioxo-2,3-dihydro-1H-purin-7(6H)-yl)-N-(2′-((S)-2-(trifluoromethyl)pyrrolidin-1-yl)-[2,5′-bipyrimidin]-4-yl)propanamide]	2290	–	–	–	–	–	–	–
Cn1c(=O)c2c(ncn2CC(=O)Nc2ccnc(-c3cnc(N4CC(F)(F)C4)nc3)n2)n(C)c1=O [Compound 7, N-(2′-(3,3-difluoroazetidin-1-yl)-[2,5′-bipyrimidin]-4-yl)-2-(1,3-dimethyl-2,6-dioxo-2,3-dihydro-1H-purin-7(6H)-yl)acetamide]	922	–	–	–	–	–	–	–
Cn1c(=O)c2c(ncn2CC(=O)Nc2ccnc(-c3cnc(N4CCC(F)(F)CC4)nc3)n2)n(C)c1=O [Compound 8, N-(2′-(4,4-difluoropiperidin-1-yl)-[2,5′-bipyrimidin]-4-yl)-2-(1,3-dimethyl-2,6-dioxo-2,3-dihydro-1H-purin-7(6H)-yl)acetamide]	71.9	38.4	115	–	–	–	–	–
C[C@@H](C(=O)Nc1ccnc(-c2cnc(N3CC(F)(F)C3)nc2)n1)n1cnc2c1c(=O)n(C)c(=O)n2C [Compound 9, (S)—N-(2′-(3,3-difluoroazetidin-1-yl)-2,5′-bipyrimidin-4-yl)-2-(1,3-dimethyl-2,6-dioxo-2,3-dihydro-1H-purin-7(6H)-yl)propanamide]	462	–	–	–	–	–	–	–
Cn1c(=O)c2c(ncn2CC(=O)Nc2ccnc(-c3cnc(N4CC5CC5C4)nc3)n2)n(C)c1=O (stereo not shown) [Compound 10, N-(2′-(3-azabicyclo[3.1.0]hexan-3-yl)-[2,5′-bipyrimidin]-4-yl)-2-(1,3-dimethyl-2,6-dioxo-2,3-dihydro-1H-purin-7(6H)-yl)acetamide]	93.5	–	–	–	–	–	–	–
Cn1c(=O)c2c(ncn2CC(=O)Nc2ccnc(-c3cnc(N4CCC(C(F)(F)F)C4)nc3)n2)n(C)c1=O (stereo not shown) [Compound 11, 2-(1,3-dimethyl-2,6-dioxo-2,3-dihydro-1H-purin-7(6H)-yl)-N-(2′-(3-(trifluoromethyl)pyrrolidin-1-yl)-[2,5′ bipyrimidin]-4-yl)acetamide]	124	–	–	–	–	–	–	–
Cn1c(=O)c2c(ncn2CC(=O)Nc2ccnc(-c3cnc(N4CC(C(F)(F)F)C4)nc3)n2)n(C)c1=O [Compound 12, 2-(1,3-dimethyl-2,6-dioxo-1,2,3,6-tetrahydropurin-7-yl)-N-(2-(2-(3-(trifluoromethyl)azetidin-1-yl)pyrimidin-5-yl)pyrimidin-4-yl)acetamide]	387	–	–	–	–	–	–	–
C[C@@H](C(=O)Nc1ccnc(-c2cnc(N3CCC(F)(F)CC3)nc2)n1)n1cnc2c1c(=O)n(C)c(=O)n2C [Compound 14, (S)—N-(2′(4,4-difluoropiperidin-1-yl)-2,5′-bipyrimidin-4-yl)-2-(1,3-dimethyl-2,6-dioxo-2,3-dihydro-1H-purin-7(6H)-yl)propanamide]	94.8	–	–	–	–	–	–	–
C[C@H]1CCCCN1c1ncc(-c2nccc(NC(=O)Cn3cnc4c3c(=O)n(C)c(=O)n4C)n2)cn1 [Compound 17, (S)-2-(1,3-dimethyl-2,6-dioxo-2,3-dihydro-1H-purin-7(6H)-yl)-N-(2′-(2-methylpiperidin-1-yl)-2,5′-bipyrimidin-4-yl)acetamide]	41.2	8	–	11 (≈ 22.4 µM)	9 (≈ 18.3 µM)	12 (≈ 24.5 µM)	16	22
Cn1c(=O)c2c(ncn2CC(=O)Nc2ccnc(-c3cnc(N4CCCC4(C)C)nc3)n2)n(C)c1=O [Compound 18, 2-(1,3-dimethyl-2,6-dioxo-2,3-dihydro-1H-purin-7(6H)-yl)-N-(2′-(2,2-dimethylpyrrolidin-1-yl)-2,5′-bipyrimidin-4-yl)acetamide]	10.4	12	21.8	51 (≈ 104 µM)	17 (≈ 34.7 µM)	41 (≈ 83.6 µM)	15	24
C[C@H](C(=O)Nc1ccnc(-c2cnc(N3CCC[C@@H]3C)nc2)n1)n1cnc2c1c(=O)n(C)c(=O)n2C [Compound 22, (R)-2-(1,3-dimethyl-2,6-dioxo-2,3-dihydro-1H-purin-7(6H)-yl)-N-(2′-((S)-2-methylpyrrolidin-1-yl)-[2,5′-bipyrimidin]-4-yl)propanamide]	> 3200	26	–	50 (≈ 102 µM)	70 (≈ 143 µM)	89 (≈ 181 µM)	12	–
CC(C(=O)Nc1ccnc(-c2cnc(N3CCCC[C@@H]3C)nc2)n1)n1cnc2c1c(=O)n(C)c(=O)n2C (stereo partly drawn) [Compound 23, 2-(1,3-dimethyl-2,6-dioxo-2,3-dihydro-1H-purin-7(6H)-yl)-N-(2′-((S)-2-methylpiperidin-1-yl)-2,5′-bipyrimidin-4-yl)propanamide]	60.7	4	–	20 (≈ 39.6 µM)	14 (≈ 27.7 µM)	31 (≈ 61.4 µM)	18	–
C[C@H]1CCCN1c1ncc(-c2nccc(NC(=O)Cn3cnc4c3c(=O)[nH]c(=O)n4C)n2)cn1 [Compound 24, (S)-2-(3-methyl-2,6-dioxo-2,3-dihydro-1H-purin-7(6H)-yl)-N-(2′-(2-methylpyrrolidin-1-yl)-[2,5′-bipyrimidin]-4-yl)acetamide]	436	–	–	–	–	–	–	–
[2H]C([2H])([2H])n1c(=O)n(C)c(=O)c2c1ncn2CC(=O)Nc1ccnc(-c2cnc(N3CCC[C@@H]3C)nc2)n1 [Compound 25, N-{2-[2-((2S)-2-methylpyrrolidinyl)pyrimidin-5-yl]pyrimidin-4-yl}-2-(1-methyl-3-methyl-d3-2,6-dioxo(1,3,7-trihydropurin-7-yl))acetamide]	107	43	–	45 (≈ 93.8 µM)	11 (≈ 22.9 µM)	29 (≈ 60.5 µM)	8	–
Cn1c(=O)c2c(ncn2CC(=O)Nc2ccnc(-c3cnc(N4CCC[C@H]4C(F)(F)F)nc3)n2)n(C)c1=O [Compound 27, (S)-2-(1,3-dimethyl-2,6-dioxo-2,3-dihydro-1H-purin-7(6H)-yl)-N-(2′-(2-(trifluoromethyl)pyrrolidin-1-yl)-[2,5′-bipyrimidin]-4-yl)acetamide]	255	–	–	–	–	–	–	–
C[C@H](C(=O)Nc1ccnc(-c2cnc(N3CCC[C@@H]3C(F)(F)F)nc2)n1)n1cnc2c1c(=O)n(C)c(=O)n2C [Compound 28]	65.9	–	–	–	–	–	–	–
